This note sets out measurements from patent US7291456B2, “Method for determining differences in molecular interactions and for screening a combinatorial library” (The Regents of the University of California, priority 2002, dated 2007).

The assay has as its system human plasma. Kind of assay: One-bead-one-compound cXXXXXc peptide library screening, biotinylated serum (first mixture) then plasma (target mixture), BCIP staining and (B-A)/A image analysis. The assay is classed as binding. Particulars: 4 μg biotinylated serum, then 4 μg biotinylated plasma, 1 hour each at 23° C., sequence by automated peptide sequencing. An excerpt:
General Method. The two mixtures of molecules to be compared were human plasma, referred to as “the target mixture,” and human serum, referred to as “the first mixture.” Both the plasma and serum were biotinylated with EZ-Link™ Sulfo-NHS-LC-Biotin from Pierce. Bead libraries were generated on TenteGel from Rapp Polymere. Amino acids used in bead library synthesis were from Synpep. Bead library screenings were done in disposable polypropylene columns from Perkin Elmer Life Sciences. All buffer reagents were from Sigma unless otherwise noted. PBS, TBS and BCIP buffers were as described in Lam, Kit S. and Michal Lebl, “Synthesis of a one-bead one-compound combinatorial peptide library,” Methods in Molecular Biology, vol. 87, Combinatorial Peptide Library Protocols. Edited by Shmuel Cabilly (Humana Press: 1997), 1-6. Bead staining utilized BCIP from Bio Synth AG which was hydrolyzed with streptavidin-alkaline phosphatase conjugate from Zymed. Bead immobilization was done in SeaPlaque agarose from Bio Wittaker Molecular Applications in Omni tray lids from Nunc/Nalgene. Scanned images were generated on a flatbed transparency scanner from Umax. Computer imaging was accomplished with Adobe Photoshop and compiler software was from Metrowerks. Amino acid sequencing was done on an Applied Biosystems Procise 494 Protein Sequencer.
Library Synthesis. “One-bead-one-compound” cXXXXXc peptide libraries were synthesized essentially as described (Lam and Lebl, Methods in Molecular Biology, vol. 87) using the “split synthesis approach,” where “X” denotes any L-amino acid except for cysteine, arginine, and lysine, and “c” is D-cysteine. TenteGel was used as a solid support and standard Fmoc chemistry was used for the solid phase peptide synthesis reactions. (Stewart and Young 1984. Solid-Phase Peptide Synthesis. Pierce Chemical Co. Atherton, E. and R. C. Sheppard. 1989. Solid Phase Peptide Synthesis: A Practical Approach. Practical Approach Series.)
Extract Preparation and Biotinlation. Human plasma and serum were prepared by the collection of human blood into stoppered vacuum tubes in the presence of Na-heparin as an anti-coagulant for plasma and in the absence of Na-heparin for serum. Blood was allowed to clot in the tubes for 25 minutes after which the top layer of […] was collected. Na-heparin was added to the serum to equalize the amount of Na-heparin in plasma and serum after which both samples were centrifuged at 1000 rpm for 20 minutes in a Sorvall SS34 centrifuge rotor. After centrifugation, samples were aliquoted, dialyzed against PBS for four hours at 4° C., quantitated and stored frozen at −80° C. The concentrations of the plasma and serum protein extracts after dialysis were 66.5 and 57.8 mg/ml, respectively.
Plasma and serum were tagged using biotinylation where biotin was the label and streptavidin alkaline phosphatase conjugate was the label binder. Biotinylation was performed according to the manufacturer's instructions. About 0.2 mg of protein was incubated in PBS with a 20-fold molar excess of sulfo-NHS-LC-biotin for 30 minutes at 23° C. The reaction was quenched by the addition of Tris-HCl pH 7.9 to 100 mM. For calculations of molarity, the average molecular weight of the proteins in the plasma and serum solutions was assumed to be 50 kD.
Library Screening. Four experiments were conducted. On average, 250,000 “one-bead-one-compound” beads were screened in each experiment. All bead reactions were performed in 1.5 ml polypropylene disposable micro-columns with inside dimensions of 37 mm×6 mm. Unless otherwise noted, all bead reactions were incubated on a Lab quake bench top rotator (Barnstead/Thermolyne) for 1 hour at 23° C. Bead libraries were stored in PBS with 0.05% sodium-azide. All incubation buffers and components were thoroughly mixed before addition to the column containing the bead library. […]

In the case of cAHVWHc, the “ligands identified on true positive beads (beads that bound molecules essentially unique to the plasma)” value was “identified”. The entry for cFHNNHc is “identified”. Then cGIHYLc, with “identified”; and cHGHTIc, with “identified”. Then cHTLHQc, with “identified”. On to cHVHPWc, for which the “ligands identified on true positive beads (beads that bound molecules essentially unique to the plasma)” value is given as “identified”.

As to cHYHVSc, the “ligands identified on true positive beads (beads that bound molecules essentially unique to the plasma)” value is “identified”. In the case of cHYQTGc, the “ligands identified on true positive beads (beads that bound molecules essentially unique to the plasma)” value is on record as “identified”. In the case of cMHGHFc, the “ligands identified on true positive beads (beads that bound molecules essentially unique to the plasma)” value is reported as “identified”.

For the substance cNLTHIc, the “ligands identified on true positive beads (beads that bound molecules essentially unique to the plasma)” value is recorded as “identified”. Consider cPFHHSc, for which the “ligands identified on true positive beads (beads that bound molecules essentially unique to the plasma)” value is given as “identified”. The entry for cYGHFSc is “identified”.
